Legend:
OVCAR-3 = experiment: NCI DTP cell line screen (SRB), Ovarian Cancer; type: cell-based
Experimental: (§1) Screening of compounds 70 and 71 against several cancer cell lines The human tumor cell lines of the cancer screening panel are grown in RPMI 1640 medium containing 5% fetal bovine serum and 2 mM L-glutamine. For a typical screening experiment, cells are inoculated into 96 well microtiter plates in 100 μL at plating densities ranging from 5,000 to 40,000 cells/well depending on the doubling time of individual cell lines. After cell inoculation, the microtiter plates are incubated at 37° C., 5% CO2, 95% air and 100% relative humidity for 24 h prior to addition of experimental drugs.
(§2) After 24 h, two plates of each cell line are fixed in situ with TCA, to represent a measurement of the cell population for each cell line at the time of drug addition (Tz). Experimental drugs are solubilized in dimethyl sulfoxide at 400-fold the desired final maximum test concentration and stored frozen prior to use. At the time of drug addition, an aliquot of frozen concentrate is thawed and diluted to twice the desired final maximum test concentration with complete medium containing 50 μg/ml gentamicin. Additional four, 10-fold or ½ log serial dilutions are made to provide a total of five drug concentrations plus control. Aliquots of 100 μl of these different drug dilutions are added to the appropriate microtiter wells already containing 100 μl of medium, resulting in the required final drug concentrations.
(§3) Following drug addition, the plates are incubated for an additional 48 h at 37° C., 5% CO2, 95% air, and 100% relative humidity. For adherent cells, the assay is terminated by the addition of cold TCA. Cells are fixed in situ by the gentle addition of 50 μl of cold 50% (w/v) TCA (final concentration, 10% TCA) and incubated for 60 minutes at 4° C. The supernatant is discarded, and the plates are washed five times with tap water and air dried. Sulforhodamine B (SRB) solution (100 μl) at 0.4% (w/v) in 1% acetic acid is added to each well, and plates are incubated for 10 minutes at room temperature. After staining, unbound dye is removed by washing five times with 1% acetic acid and the plates are air dried. Bound stain is subsequently solubilized with 10 mM trizma base, and the absorbance is read on an automated plate reader at a wavelength of 515 nm. For suspension cells, the methodology is the same except that the assay is terminated by fixing settled cells at the bottom of the wells by gently adding 50 μl of 80% TCA (final concentration, 16% TCA). Using the seven absorbance measurements [time zero, (Tz), control growth, (C), and test growth in the presence of drug at the five concentration levels (Ti)], the percentage growth is calculated at each of the drug concentrations levels. Percentage growth inhibition is calculated as: [(Ti−Tz)/(C−Tz)]×100 for concentrations for which Ti>/=Tz [(Ti−Tz)/Tz]×100 for concentrations for which Ti<Tz
(§4) Three dose response parameters are calculated for each experimental agent. […] The drug concentration resulting in total growth inhibition (TGI) is calculated from Ti=Tz. […] Values are calculated for each of these three parameters if the level of activity is reached; however, if the effect is not reached or is exceeded, the value for that parameter is expressed as greater or less than the maximum or minimum concentration tested.
(§5) The methods described were used to test compounds 70 and 71 on a panel of sixty cell lines under a screening service provided by the Developmental Therapeutics Program at the National Institutes of Health. Shown in FIG. 1C are 1, RPMI-8226 leukemia cells; 2; NCI-H322M non-small cell lung cancer cells; 3, HT29 colon cancer cells; 4, U251 CNS cancer cells; 5, SK-MEL-28 melanoma cancer cells; 6, SK-OV-3 ovarian cancer cells; 7, RXF 393 renal cancer cells; 8, PC-3 prostate cancer cells; 9, MDA-MB-231 breast cancer cells.

OVCAR-8 = experiment: NCI DTP cell line screen (SRB), Ovarian Cancer; type: cell-based; conditions: OVCAR-8
Experimental: as §1, §2, §3, §4, §5

OVCAR-5 = experiment: NCI DTP cell line screen (SRB), Ovarian Cancer; type: cell-based
Experimental: as §1, §2, §3, §4, §5

OVCAR-4 = experiment: NCI DTP cell line screen (SRB), Ovarian Cancer; type: cell-based
Experimental: as §1, §2, §3, §4, §5

IGROV1 = experiment: NCI DTP cell line screen (SRB), Ovarian Cancer; type: cell-based
Experimental: as §1, §2, §3, §4, §5

immunoprecipitated Akt = experiment: Direct inhibition of immunoprecipitated Akt kinase activity; type: biochemical, human
MDA-MB-435 = experiment: NCI DTP cell line screen (SRB), Breast Cancer; type: cell-based, human
Experimental: as §1, §2, §3, §4, §5

SK-MEL-5 = experiment: NCI DTP cell line screen (SRB), Melanoma; type: cell-based, human
Experimental: as §1, §2, §3, §4, §5

SK-OV-3 = experiment: NCI DTP cell line screen (SRB), Ovarian Cancer; type: cell-based, human
Experimental: as §1, §2, §3, §4, §5

SMILES: NCC(=O)Nc1ccc(-n2nc(C(F)(F)F)cc2-c2ccc3c(ccc4ccccc43)c2)cc1 [Compound 70, 2-Amino-N-{4-[5-(2-phenanthrenyl)-3-(trifluoromethyl)-1H-pyrazol-1-yl]-phenyl}-acetamide]
- TGI (OVCAR-3): 3.32E−06
- Percent Growth (OVCAR-3; Log10 Concentration −4.0): −35%
- Percent Growth (OVCAR-3; Log10 Concentration −5.0): −70%
- Percent Growth (OVCAR-3; Log10 Concentration −6.0): 76%
- Percent Growth (OVCAR-3; Log10 Concentration −7.0): 83%
- Percent Growth (OVCAR-3; Log10 Concentration −8.0): 89%
- TGI (OVCAR-8): 4.05E−06
- Percent Growth (OVCAR-8; Log10 Concentration −4.0): −24%
- Percent Growth (OVCAR-8; Log10 Concentration −5.0): −33%
- Percent Growth (OVCAR-8; Log10 Concentration −6.0): 51%
- Percent Growth (OVCAR-8; Log10 Concentration −7.0): 102%
- Percent Growth (OVCAR-8; Log10 Concentration −8.0): 97%
- TGI (OVCAR-5): 3.32E−06
- Percent Growth (OVCAR-5; Log10 Concentration −4.0): −71%
- Percent Growth (OVCAR-5; Log10 Concentration −5.0): −83%
- Percent Growth (OVCAR-5; Log10 Concentration −6.0): 90%
- Percent Growth (OVCAR-5; Log10 Concentration −7.0): 103%
- Percent Growth (OVCAR-5; Log10 Concentration −8.0): 97%
- TGI (OVCAR-4): 3.41E−06
- Percent Growth (OVCAR-4; Log10 Concentration −4.0): −68%
- Percent Growth (OVCAR-4; Log10 Concentration −5.0): −82%
- Percent Growth (OVCAR-4; Log10 Concentration −6.0): 94%
- Percent Growth (OVCAR-4; Log10 Concentration −7.0): 92%
- Percent Growth (OVCAR-4; Log10 Concentration −8.0): 99%
- TGI (IGROV1): 3.97E−06
- Percent Growth (IGROV1; Log10 Concentration −4.0): −35%
- Percent Growth (IGROV1; Log10 Concentration −5.0): −49%
- Percent Growth (IGROV1; Log10 Concentration −6.0): 74%
- Percent Growth (IGROV1; Log10 Concentration −7.0): 107%
- Percent Growth (IGROV1; Log10 Concentration −8.0): 97%
- direct inhibitory effect on immunoprecipitated Akt activity (immunoprecipitated Akt): no appreciable direct inhibition
- Percent Growth (MDA-MB-435; Log10 Concentration −4.0): −14%
- Percent Growth (MDA-MB-435; Log10 Concentration −5.0): −69%
- Percent Growth (MDA-MB-435; Log10 Concentration −6.0): 68%
- Percent Growth (MDA-MB-435; Log10 Concentration −7.0): 98%
- Percent Growth (MDA-MB-435; Log10 Concentration −8.0): 103%
- TGI (MDA-MB-435; in M (unit assumed)): 3.14E−06
- Percent Growth (SK-MEL-5; Log10 Concentration −4.0): −34%
- Percent Growth (SK-MEL-5; Log10 Concentration −5.0): −75%
- Percent Growth (SK-MEL-5; Log10 Concentration −6.0): 69%
- Percent Growth (SK-MEL-5; Log10 Concentration −7.0): 88%
- Percent Growth (SK-MEL-5; Log10 Concentration −8.0): 91%
- TGI (SK-MEL-5; in M (unit assumed)): 3.02E−06
- TGI (SK-OV-3): 2.96E−06
- Percent Growth (SK-OV-3; Log10 Concentration −4.0): −24%
- Percent Growth (SK-OV-3; Log10 Concentration −5.0): −79%
- Percent Growth (SK-OV-3; Log10 Concentration −6.0): 71%
- Percent Growth (SK-OV-3; Log10 Concentration −7.0): 98%
- Percent Growth (SK-OV-3; Log10 Concentration −8.0): 91%
